Assay results from patent US12564622B2, “Preventing cytokine release syndrome” (priority 2017, dated 2026).
“And” between values parts separate entries of the source, which are not always exact repeats. Equal entries are not always repeated.

Experiments:
[1] = test system: LPS-injected BALB/c mice; assay type: in vivo, mouse (BALB/c); conditions: for mortality: LPS-treated mice, adrenoceptor blockers (α1, α2, β1, β2); for disease course (mortality, catecholamines, IL-6, TNF-α, MIP-2, KC) versus LPS only: catecholamine by subcutaneous osmotic pump plus sublethal dose of LPS
Procedure: LPS from Escherichia coli 0111:B4 was formulated as a 10 mg/ml solution in water and stored in −80° C. LPS was injected intraperitoneally at a dose of 3.5 mg/kg. […] Human ANP (Sigma) was dissolved in saline, loaded in mini-osmotic pumps (ALZET) with a release rate of 12 μg/day and implanted subcutaneously in the back of mice 12 hours before the LPS injection. Mice implanted with pumps loaded with saline served as controls. […] […] The control groups were injected with PBS. […] Hydration of mice was supported by daily subcutaneous injection of 0.5 ml saline.
LPS from Escherichia coli 0111:B4 was formulated as a 10 mg/ml solution in water and stored in −80° C. In Balb/C mice, LPS was injected intraperitoneally at a lethal dose of 3.5 mg/kg. […] In experiments with catecholamine pumps, a sublethal dose with 15-35% death rate was optimized in Balb/C mice. In TH+/+ and TH^ΔLysM mice with C57BL/6 background, a lethal dose was optimized at 5 mg/kg. Human ANP (Sigma) was dissolved in saline, loaded in mini-osmotic pumps (ALZET) with a release rate of 12 μg/day and implanted subcutaneously in the back of mice 12 hours before the LPS injection. Mice implanted with pumps loaded with saline served as controls. Metyrosine was freshly dissolved in PBS and injected IP at the indicated doses for three days prior to the LPS treatment. One hour before the LPS injection, metyrosine was injected into the lower abdomen contralateral to the side of LPS injection. The control groups were injected with PBS. For the following 3 days, metyrosine was injected IP at reduced indicated doses. Hydration of mice was supported by daily subcutaneous injection of 0.5 ml saline.

[2] = test system: C. novyi-NT therapy-induced toxicity in mice bearing large subcutaneous CT26 tumors; test: C. novyi-NT therapy of large subcutaneous CT26 tumors (therapy-induced toxicity); assay type: in vivo, mouse (BALB/c); conditions: CT26 tumor-bearing mice injected with parental C. novyi-NT spores, with the indicated agent
Procedure: ANP concentrations in the supernatant of ANP-C. novyi-NT culture and in mouse plasma were measured by an Elisa kit from Ray Biotech (EIAR-ANP-1) that recognizes both human and mouse ANP. ANP in the supernatant of ANP-C. novyi-NT culture were shown biological activities as described elsewhere (Lofton et al., 1990 Biochem. Biophys. Res. Comm., 172:793-9). Briefly, bacterial supernatants were applied to cultured bovine aortic endothelial cells (BAOEC, Cell Applications Inc.) for 3 minutes. cGMP concentrations were then measured in BAOEC lysates by the Direct cGMP Elisa Kit from Enzo following the manufacture's instruction.
The colon cancer cell line CT26 was injected subcutaneously into the right flank of six to eight week old female Balb/C mice as described elsewhere (Qiao et al., 2011 Oncotarget, 2:59-68). Tumor sizes were measured with a caliper and calculated as ½*L*W*H as described elsewhere (Tomayko et al., 1989 Can. Chemother. Pharmacol., 24:148-54). When tumors reached 600-900 mm^3 after about two weeks, 12×10^6 spores of C. novyi-NT or ANP-C. novyi-NT at 3×10^6/μl were injected intratumorally into 4 central parts of the tumor with a 32 G Hamilton syringe needle. The bacteria typical germinated in the tumors within 24 hours, turning them necrotic. Hydration of the mice was supported by daily subcutaneous injections of […] saline. Human ANP (Sigma) was dissolved in saline, loaded in mini-osmotic pumps (ALZET) with a release rate of 12 μg/day and implanted subcutaneously in the back of mice 12 hours before the spore injection. Pumps loaded with saline served as controls. Metyrosine was dissolved in PBS and injected IP at 60 mg/kg/day for three days before the C. novyi injection to deplete catecholamines in storage. Two hours after the spore injection, 60 mg/kg of metyrosine was injected intraperitoneally (IP). For each of the next three days, IP injections of metyrosine at 30 mg/kg were administered. Control groups were injected with PBS at the same time points.
Blood samples were collected into tubes containing 5 mM EDTA and 4 mM sodium metabisulfite after puncturing the facial vein or (terminally) by cardiac puncture. Subsequently, the samples were centrifuged and the plasmas were stored at −80° C. prior to analysis. Catecholamines (dopamine, norepinephrine and epinephrine) were measured using the 3-CAT Research ELISA kit from Labor Diagnostika Nord GmbH/Rocky Mountain Diagnostics. Cytokines were measured using Luminex assays based on Millipore Mouse and Human Cytokine/Chemokine panels.
ANP concentrations in the supernatant of ANP-C. novyi-642 NT culture and in mouse plasma were measured with an Elisa kit from Ray Biotech (EIAR-ANP-1) that recognizes both human and mouse ANP. […] Briefly, bacterial supernatants were applied to cultured bovine aortic endothelial cells (BAOEC, Cell Applications Inc.) for 3 minutes. cGMP concentrations were then measured in BAOEC lysates by the Direct cGMP Elisa Kit from Enzo following the manufacture's instruction.
The colon cancer cell line CT26 was injected subcutaneously into the right flank of six to eight weeks old female Balb/C mice as described elsewhere (see, e.g., Qiao et al. 2011 Oncotarget 2:59-68). Tumor sizes were measured with a caliper and calculated as ½*L*W*H as described elsewhere (see, e.g., Tomayko et al. 1989 Cancer Chemother Pharmacol 24:148-154). When tumors reached 600-900 mm^3 after about two weeks, 12×10^6 spores of C. novyi-NT or ANP-C. novyi-NT at 3×10^6/μl were injected intratumorally into 4 central parts of the tumor with a 32 G Hamilton syringe needle. The bacteria typical germinated in the tumors within 24 hours, turning them necrotic. Hydration of the mice was supported by daily subcutaneous injections of 500 μl saline. Human ANP (Sigma) was dissolved in saline, loaded in mini-osmotic pumps (ALZET) with a release rate of 12 μg/day and implanted subcutaneously in the back of mice 12 hours before the spore injection. Pumps loaded with saline served as controls. […]

[3] = test system: polymicrobial peritoneal sepsis induced by CLP; test: Cecal ligation and puncture (CLP) sepsis; assay type: in vivo, mouse (C57BL/6); conditions: antibiotic alone, from 20 hours after CLP
Procedure: (§1) Cecal ligation and puncture (CLP) was performed as described elsewhere (Rittirsch et al., 2009 Nature Protocols, 4:31-6). Briefly, six-to-eight week old female C57BL/6 mice were anesthetized and following abdominal incision, the cecum was ligated at about 14 the distance from the luminal entry to its tip. The ligated cecum was punctured through and through with a 22 G needle at ½ and ¾ the distance from the luminal entry to its tip. A small amount of the cecal content was gently pushed out of the four openings into the peritoneum. Subsequently, the abdominal muscles were sutured and the skin was closed with two staples. Five hundred microliters of saline were immediately injected subcutaneously to the mice. For the groups treated with antibiotics, imipenem (Sigma) was injected subcutaneously at 25 mg/kg starting from 20 hours after CLP, with a schedule of twice a day on day one and once a day thereafter for 10 days. Human ANP (Sigma) was dissolved in saline, loaded in mini-osmotic pumps (ALZET) with a release rate of 12 μg/day and implanted subcutaneously in the back of mice 12 hours before the CLP, with pumps loaded with saline serving as controls. Metyrosine was freshly dissolved in PBS and injected IP at 60 mg/kg/day for three days before the CLP. Twenty minutes before the CLP, metyrosine was injected at 60 mg/kg IP into the right side. The control groups were injected with PBS. For the following 4 days, metyrosine was injected at 30 mg/kg/day IP into the right side. Hydration of mice was supported by daily subcutaneous injection of 0.5 ml saline.
as §1, with “CLP” for “Cecal ligation and puncture (CLP)”, “(see, e.g., Rittirsch” for “(Rittirsch”, “2008 Rev Immunol 8:776-787).” for “2009 Nature Protocols, 4:31-6).”, “6-8 weeks” for “six-to-eight week”, “¼” for “14”, “days.” for “days. Human ANP (Sigma) was dissolved in saline, loaded in mini-osmotic pumps (ALZET) with a release rate of 12 μg/day and implanted subcutaneously in the back of mice 12 hours before the CLP, with pumps loaded with saline serving as controls.”

[4] = incubation in media for 24 hours at 37° C.
[5] = test system: co-culture of hCART19 and Raji cells; test: In vitro co-culture of Raji and hCART19 cells; assay type: cell-based, human; conditions: co-culture stimulated with epinephrine 15 ng/ml; CHX 10 μg/ml
Excerpt: Human CD19scFv-CD28-4-1BB-CD3ζ CAR-T cells (PM-CAR1003) were purchased from Promab Biotechnologies and maintained less than 7 days in AIM-V medium (GIBCO) supplemented with 300 IU/ml of hIL2 (Peprotech), 5% FBS and antibiotics (Car-T medium).

**Q.** Which mortality [1] does the source give for COCCc1ccc(OCC(O)CNC(C)C)cc1 (stereo not shown) [metoprolol] here?
**A.** The mortality was “did not reduce mortality”.

**Q.** Which mortality [1] does the source give for COC1(C2=NCCN2)COc2ccccc2O1 (stereo not shown) [RX 821002] here?
**A.** Its mortality is “did not reduce mortality”.

**Q.** With Cc1ccc(OCC(O)C(C)NC(C)C)c2c1CCC2 (stereo not shown) [ICI 118551] as the compound, how does the mortality [1] read?
**A.** The mortality was “did not reduce mortality”.

**Q.** With Cc1ncc([N+](=O)[O-])n1CCO [metronidazole] as the compound, how does the “effect on survival (words)” value [2] read?
**A.** The value was “did not protect animals from sepsis”.

**Q.** With C[C@@H](O)[C@H]1C(=O)N2C(C(=O)O)=C(SCCN=CN)C[C@H]12 [imipenem] as the compound, how does the “mice that died after CLP” value [3] read?
**A.** The value was 88% and > 90%.

**Q.** Which “disease course (mortality, catecholamines, IL-6, TNF-α, MIP-2, KC) versus LPS only” value [1] does the source give for CNC[C@H](O)c1ccc(O)c(O)c1 [epinephrine, (−)-epinephrine] here?
**A.** The value was “earlier onset and exacerbated disease course”.

**Q.** And the animal survival ([1]; mouse, in vivo)?
**A.** Its animal survival is “no effect on animal survival”.

**Q.** And the cytokine release ([1]; mouse, in vivo)?
**A.** The cytokine release was “moderately stimulate cytokine release”.

**Q.** What about the stability in media [4] of the same compound?
**A.** The stability in media was “all detectable epinephrine was degraded”.

**Q.** For NCCc1ccc(O)c(O)c1 [dopamine], which “disease course (mortality, catecholamines, IL-6, TNF-α, MIP-2, KC) versus LPS only” value [1] is on record?
**A.** The value was “absent”.

**Q.** Which “disease course (mortality, catecholamines, IL-6, TNF-α, MIP-2, KC) versus LPS only” value [1] does the source give for NC[C@H](O)c1ccc(O)c(O)c1 [norepinephrine] here?
**A.** Its value is “less pronounced”.

**Q.** Which results are given for Cc1ccc2nc(NCCN)c3ncc(C)n3c2c1 [BMS-345541]?
**A.** effect on survival (words) [2]: no significant improvement in survival; effect on survival (words) ([2]; listed as BMS345541): did not improve survival

**Q.** Which “production of catecholamines and cytokines” value ([1]; 24 hours after LPS, α1 blockade) does the source give for COc1cc2nc(N3CCN(C(=O)c4ccco4)CC3)nc(N)c2cc1OC [prazosin] here?
**A.** The value was “suppressed the production of catecholamines and cytokines”.

**Q.** And the mortality [1]?
**A.** Its mortality is “substantially reduced mortality”.

**Q.** For C[C@@H]1C[C@@H]([C@H](O)CC2CC(=O)NC(=O)C2)C(=O)[C@@H](C)C1 [CHX, Cycloheximide], which “increase of catecholamines and cytokines (TNF-α, MIP-1α, IFN-γ, GM-CSF)” value [5] is on record?
**A.** Its value is “greatly suppressed”.
